Reference: US10471127B2, “Peptide pharmaceuticals for insulin resistance” (Mederis Diabetes, LLC, priority 2011, dated 2019)

System: not given
Assay: not given
Conditions: in water; cited from earlier work

Compared with `CCCCCCCCCCCCCCO[C@@H]1O[C@H](CO)[C@@H](O[C@@H]2O[C@@H](CO)[C@H](O)[C@@H](O)[C@@H]2O)[C@H](O)[C@H]1O` (stereo in doubt) [Tetradecyl maltoside], `CCCCCCCCO[C@@H]1O[C@H](CO)[C@@H](O[C@H]2O[C@H](CO)[C@@H](O)[C@H](O)[C@H]2O)[C@H](O)[C@H]1O` [Octyl maltoside] is 2000-fold higher in CMC: 0.01 mM for the first, 19.5 mM for the second.

First: CCCCCCCCCCCCCO[C@@H]1O[C@H](CO)[C@@H](OC2OC(CO)C(O)C(O)C2O)[C@H](O)[C@H]1O (stereo in doubt) [Tridecyl maltoside]
Second: Sucrose dodecanoate
The CMC of the first is 10-fold lower: 0.03 mM for the first, 0.3 mM for the second.

Going from `CCCCCCCCCCCCO[C@@H]1O[C@H](CO)[C@@H](O[C@H]2O[C@H](CO)[C@@H](O)[C@H](O)[C@H]2O)[C@H](O)[C@H]1O` [Dodecyl-β-D-maltoside] to `CCCCCCCCCCO[C@@H]1O[C@H](CO)[C@@H](O[C@H]2O[C@H](CO)[C@@H](O)[C@H](O)[C@H]2O)[C@H](O)[C@H]1O` [Decyl maltoside], the CMC rises from 0.17 mM to 1.8 mM (11-fold).

Molecular target: T1, glucagon R (Homo sapiens, UniProt P47871)
T1 construct: Cerep SA
Assay: glucagon cellular assay, stimulation of cAMP levels (Cerep SA)
Assay type: cell-based
Conditions: cAMP generated in cells; n.c. means EC50 not calculable
Protocol: Compounds were weighed precisely in an amount of approximately 1 mg and assayed in standard cellular assays (Cerep SA). The readout is the amount of cAMP generated in the cells treated with the test compounds, in either agonist or antagonist mode.

T1 sequence (P47871 26-477): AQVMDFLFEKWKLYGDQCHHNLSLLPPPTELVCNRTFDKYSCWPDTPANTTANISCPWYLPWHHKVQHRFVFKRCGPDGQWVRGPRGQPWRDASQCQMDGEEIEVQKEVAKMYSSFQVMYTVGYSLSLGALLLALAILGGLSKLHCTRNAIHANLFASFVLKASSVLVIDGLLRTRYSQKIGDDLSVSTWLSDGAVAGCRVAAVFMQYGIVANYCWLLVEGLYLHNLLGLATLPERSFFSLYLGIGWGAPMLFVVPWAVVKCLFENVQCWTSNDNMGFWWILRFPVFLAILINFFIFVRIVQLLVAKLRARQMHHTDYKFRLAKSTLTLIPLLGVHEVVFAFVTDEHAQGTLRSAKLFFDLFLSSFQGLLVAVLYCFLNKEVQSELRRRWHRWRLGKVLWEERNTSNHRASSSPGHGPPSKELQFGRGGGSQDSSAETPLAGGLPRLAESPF

For `CCCCCCCCCCCCO[C@@H]1O[C@H](C(=O)NCCCC[C@H](NC(=O)[C@@H]2CCCCNC(=O)CC[C@H](NC(=O)[C@H](CC(=O)O)NC(=O)[C@H](CC(C)C)NC(=O)[C@H](Cc3ccc(O)cc3)NC(=O)[C@H](CCCCN)NC(=O)[C@H](CO)NC(=O)[C@H](Cc3ccc(O)cc3)NC(=O)[C@H](CC(=O)O)NC(=O)[C@H](CO)NC(=O)[C@@H](NC(=O)[C@H](Cc3ccccc3)NC(=O)[C@@H](NC(=O)CNC(=O)[C@H](CCC(N)=O)NC(=O)C(C)(C)NC(=O)[C@@H](N)Cc3c[nH]cn3)[C@@H](C)O)[C@@H](C)O)C(=O)N[C@@H](CCCNC(=N)N)C(=O)N[C@@H](C)C(=O)N[C@@H](C)C(=O)N2)C(=O)N[C@@H](Cc2ccccc2)C(=O)NC(C)(C)C(N)=O)[C@@H](O)[C@H](O)[C@H]1O` [EU-A455], the EC50 was 770 nM.
